# Reference: patent US20250257401A1, “BIOMARKER FOR TUBEROUS SCLEROSIS COMPLEX WITH NO MUTATION IDENTIFIED IN TSC1 OR TSC2 GENE, AND USES THEREOF” (Guangzhou KingMed Transformative Medicine Institute Co., …, priority 2022, published 2025)
# Assays:
# Type in all cases: cell-based, human
# HaCaT cells = experiment: Dose-dependent cell viability, preliminary IC50 experiment (HaCaT); conditions: FIG. 6
# IQGAP2-silenced cells = experiment: Cell proliferation of IQGAP2-silenced cells after administration of inhibitors (CCK8); conditions: IQGAP2-silenced HaCaT and HEK293 cells; each inhibitor in a dose of IC50; FIG. 7 and FIG. 8
# Description: That is, the pathway was further determined by verifying whether the cell proliferation caused by IQGAP2 silencing can be alleviated by inhibiting the AKT activity and mTORC1 activity (key factors of the mTOR pathway) in IQGAP2-silenced cells with the inhibitors.
# Then, HaCaT cells and HEK293 cells were administrated with each inhibitor in a dose of IC50.
# HEK293 cells = experiment: Dose-dependent cell viability, preliminary IC50 experiment (HEK293); conditions: FIG. 6
# IQGAP2 gene [1] = experiment: IQGAP2 silencing by shRNA, gene and protein expression (HaCaT); conditions: HaCaT cells; lentiviral transduction; 72 hours; FIG. 3
# Description: (§1) To verify whether the abnormal IQGAP2 affected cell proliferation, IQGAP2-silenced cells were constructed using an RNAi approach. Since TSC could affect the skin and kidney of the patients, human keratinocytes (HaCaT) cells and human embryonic kidney 293 (HEK 293) cells were chosen as cell models. The shRNA sequence was designed and constructed for the IQGAP2 gene (as shown in Table 1), and IQGAP2-silenced HaCaT cells and IQGAP2-silenced HEK293 cells were obtained by lentiviral transduction. Subsequently, the cell proliferation of IQGAP2-silenced cells was detected at 24, 48, and 72 hours by using Cell Counting Kit 8 (CCK8).
# (§2) The results were shown in FIGS. 3 to 4, and FIG. 3 depicted the gene expression level of IQGAP2-silenced human keratinocytes cells and IQGAP2-silenced human embryonic kidney 293 cells at 72 hours. […] And Control represented a control group, shGFP represented the empty vector control group, sh IQ IQGAP2-1, sh IQ IQGAP2-2, and sh IQ IQGAP2-3 represented the corresponding shRNA-1 to shRNA-3 primer silencing groups (repeated in triplicate for each group), respectively, and GAPDH represented the internal reference gene.
# IQGAP2 gene [2] = experiment: IQGAP2 silencing by shRNA, gene and protein expression (HEK293); conditions: HEK293 cells; lentiviral transduction; 72 hours; FIG. 3
# Description: as §1, §2
molecule,measurement,setting,value
O=c1[nH]c2ccccc2n1C1CCN(Cc2ccc(-c3nc4cc5[nH]cnc5cc4nc3-c3ccccc3)cc2)CC1 [AKT inhibitor VIII],IC50,HaCaT cells,25 µM
same,cell proliferation of IQGAP2-silenced cells,IQGAP2-silenced cells,reduce the cell proliferation
same,IC50,HEK293 cells,12.5 µM
IQGAP2-shRNA-3: IQGAP2-silenced shRNA sequence 5′-GCTCCAGATGGCTTTGATATC-3′ (SEQ ID NO. 3) (GCUCCAGAUGGCUUUGAUAUC),IQGAP2 silencing,IQGAP2 gene [1],optimum silencing
CO[C@H]1C[C@@H]2CC[C@@H](C)[C@@](O)(O2)C(=O)C(=O)N2CCCC[C@H]2C(=O)O[C@H]([C@H](C)C[C@@H]2CC[C@@H](O)[C@H](OC)C2)CC(=O)[C@H](C)/C=C(\C)[C@@H](O)[C@@H](OC)C(=O)[C@H](C)C[C@H](C)/C=C/C=C/C=C/1C [Rapamycin],IC50,HaCaT cells; Homo sapiens,50 µM
same,IC50,HEK293 cells; Homo sapiens,12.5 µM
IQGAP2-shRNA-1: IQGAP2-silenced shRNA sequence 5′-GCTCCTACCTACTGCGAATAT-3′ (SEQ ID NO. 1) (GCUCCUACCUACUGCGAAUAU),IQGAP2 silencing,IQGAP2 gene [2],optimum silencing
